Activity calls are given as the source filed them. How the calls were made is not given here.
Biological target: Toxin B (TcdB) glycohydrolase, Clostridioides difficile 630
Experiment: TcdB glycohydrolase inhibitors, dose response, biochemical, cherry-pick, plate reader (AID 720512)
Settings: recombinant TcdB glycohydrolase activity

| SMILES | activity change, negative = inhibition (at 19.5 µM (top of the series)) | also measured |
| --- | --- | --- |
| ONC(=Nc1ccccc1Cl)c1ccccc1Cl | – | AC50: > 39 µM (inactive) |
| CCOC(=O)N1CCN=C1SCc1ccc(Cl)c(Cl)c1 | inactive | – |
| O=C(O)c1cc(NS(=O)(=O)c2ccc(NC3CCCCC3)c([N+](=O)[O-])c2)cc(C(=O)O)c1 | inactive | – |
| O=C(C[C@@H]1CC[C@@H]2[C@H](COC[C@H](O)CN2C(=O)c2ccccn2)O1)NC1CCC1 | inactive | – |
| CC(=O)Nc1cccc2cc(O)ccc12 | – | AC50: > 39 µM (inactive) |
| C[C@H](CO)N1C[C@H](C)[C@@H](CN(C)C(=O)Nc2ccc(C(F)(F)F)cc2)Oc2c(NS(=O)(=O)c3ccccc3)cccc2C1=O | – | AC50: > 39 µM (inactive) |
| O=C(CN1C(=O)CCC1=O)NNc1ccc2ccccc2c1 | inactive | – |
| NC1=NC[C@H](Cc2ccc(O)cc2)N1CCc1cc(C(F)(F)F)cc(C(F)(F)F)c1 | inactive | – |
| COc1ccc(-c2nc3ccc([N+](=O)[O-])cc3[nH]2)cc1 | inactive | – |
| CC[C@H](C)[C@H]1CNC(=S)N1CC1CCN(CCCC2CCCC2)CC1 | inactive | – |
| CC(Sc1nc(N)cc(=O)[nH]1)C(=O)NCC(=O)Nc1ccc(F)c(F)c1F (configuration not stated) | inactive | – |
| COc1cc2oc3ccc(C#Cc4ccccn4)cc3c(=O)c2cc1OC | inactive | – |
| Fc1cccc(NC(=S)NNc2c3ccccc3nc3ccccc23)c1 | inactive | – |
| COc1cc(/C=N/N2C(=O)C3C4C=CC(CC4)C3C2=O)ccc1O (configuration not stated) | inactive | – |
| O=C1CSC(=Nc2ccc(O)cc2)N1 | inactive | – |
| S=c1[nH]nc(-c2ccccn2)n1/N=C/c1ccc(Cl)cc1 | inactive | – |
| CCCCn1c(N)c(N(CCOC)C(=O)CSc2nnc(-c3ccco3)n2CC)c(=O)[nH]c1=O | inactive | – |
| CCOC(=O)c1cc([N+](=O)[O-])sc1N | inactive | – |
| CCN1CCN(C(=O)C2=CC(c3ccc(OC)cc3)=NS(=O)(=O)N2C)CC1 | inactive | – |
| COc1ccc(Cl)cc1NC(=O)CSc1nnc(-c2ccco2)o1 | inactive | – |
| COc1cc(C=NNC(=O)c2ccccc2-n2cccc2)ccc1O | inactive | – |
| CCC(=Nc1ccccc1)C1=C(O)CCCC1=O | inactive | – |
| CCNC(=O)C[C@H]1CC[C@@H]2[C@H](COc3ccc(NC(C)=O)cc3C(=O)N2C)O1 | inactive | – |

| SMILES | activity change, negative = inhibition (at 19.5 µM (top of the series)) | also measured |
| --- | --- | --- |
| COc1cc(N=Nc2c(C)n(C)n(-c3ccccc3)c2=O)ccc1N | inactive | – |
| Oc1ccc2c(ccc3[nH]cnc32)c1 | inactive | – |
| O=c1[nH]c(CN2CCOCC2)nc2cc(Cl)ccc12 | inactive | – |
| C[C@@H]1CN([C@H](C)CO)C(=O)c2cccc(N(C)C)c2O[C@@H]1CN(C)C(=O)Nc1ccc(C(F)(F)F)cc1 | inactive | – |
| COc1ccc(C(=O)N2CCOCC2)cc1S(=O)(=O)N1CCCc2ccccc21 | inactive | – |
| COc1ccc(Cl)cc1-n1c(=S)sc2c(=O)n(-c3ccc(F)cc3)c(SCC(=O)O)nc21 | inactive | – |
| CNC(=O)C[C@H]1CC[C@@H]2[C@@H](COc3ccc(NC(=O)c4cccc(OC)c4)cc3C(=O)N2C)O1 | inactive | – |
| CC(=O)c1ccc(NC(=O)CNCC(c2ccccc2)N(C)C)cc1 (configuration not stated) | inactive | – |
| Oc1ccc(Cc2ccccc2Cl)c(O)c1 | – | AC50: > 39 µM (inactive) |
| Cc1onc(-c2c(F)cccc2Cl)c1C(=O)Nc1nnc(C(F)(F)F)s1 | inactive | – |
| CC(=O)Nc1ccccc1O | inactive | – |
| C[N+]1(CCCCSc2ccc(O)cc2)CCCCC1 | – | AC50: > 39 µM (inactive) |
| O=C(C[C@H]1C[C@H]2c3cc(NC(=O)c4ccc5c(c4)OCO5)ccc3O[C@H]2[C@@H](CO)O1)NCc1cccc(F)c1 | inactive | – |
| COc1cc(/C=N/NC(=O)C2COc3ccccc3O2)ccc1O (configuration not stated) | inactive | – |
| COc1ccccc1-n1c(SCC(=O)O)nc2c(sc(=S)n2-c2ccc(C)c(C)c2)c1=O | inactive | – |
| Cc1cc(C(=O)CSc2nnnn2-c2ccccc2)c(C)n1-c1ccc2c(c1)OCO2 | inactive | – |
| COc1ccccc1Nc1nnc(SCc2cc(=O)n3ccsc3n2)s1 | inactive | – |
| COc1ccc(NC(=O)Cn2cnc3sc(C)c(S(=O)(=O)N4CCOCC4)c3c2=O)c(OC)c1 | inactive | – |
| CC(=O)Nc1ccc(NC(=O)CN2CCN(c3ccccn3)CC2)cc1 | inactive | – |
| Cc1ccc(C(=O)Nc2scc(-c3ccccc3)c2C(=O)O)cc1 | – | AC50: > 39 µM (inactive) |
| CCc1ccc(NC(=O)c2cc(C)on2)cc1 | inactive | – |
| O=[N+]([O-])c1ccc(S(=O)(=O)Nc2nc(-c3ccccc3)cs2)cc1 | inactive | – |
| COCC(=O)N1CC[C@H]2[C@@H]1c1cc(-c3ccc(OC)cc3)ccc1N(C)[C@H]2CO | – | AC50: > 39 µM (inactive) |

| SMILES | activity change, negative = inhibition (at 19.5 µM (top of the series)) | also measured |
| --- | --- | --- |
| Cc1c(-n2c(O)c(C3=c4ccccc4=NC3=O)sc2=S)c(=O)n(-c2ccccc2)n1C | inactive | – |
| COc1ccc(S(=O)(=O)Nc2ccc3oc(C)c(C(=O)O)c3c2)cc1 | inactive | – |
| CCNC(=O)C[C@@H]1CC[C@H]2[C@@H](COc3ccc(NC(C)=O)cc3C(=O)N2C)O1 | – | activity change, negative = inhibition (at 21 µM (top of the series)): inactive |
| Oc1cc(O)cc(/C=C/c2ccc(O)c(O)c2)c1 | inactive | – |
| Cc1cccc(/C=C/c2onc(C)c2S(=O)(=O)N2CCC(C(=O)NC(C)(C)C)CC2)c1 | inactive | – |
| OCC1CCCN(C(=S)Nc2ccc(Nc3ccccc3)cc2)C1 (configuration not stated) | inactive | – |
| COc1ccccc1-n1c(CCC(=O)O)ccc1-c1ccccc1 | inactive | – |
| COCCCNC(=O)C1CCN(S(=O)(=O)c2c(C)noc2/C=C\c2ccc(OC)cc2)CC1 | inactive | – |
| COc1ccc(C=C2CCC3C(=O)CCCC3(C)C2=O)cc1 (configuration not stated) | inactive | – |
| Oc1ccc(/C=N/N2CCN(Cc3ccccc3)CC2)cc1 | – | AC50: > 39 µM (inactive) |
| COc1cccc2sc(NNC(=O)C3COc4ccccc4O3)nc12 (configuration not stated) | inactive | – |
| CN(C)c1ccc(C(=O)OCC#CCSc2nnc(-c3cccc4ccccc34)o2)cc1 | inactive | – |
| O=C(C[n+]1ccccc1)N/N=C/c1ccc(O)cc1 | inactive | – |
| Nc1ccc(OCCCc2c(N)nc(N)nc2N)cc1 | – | AC50: > 39 µM (inactive) |
| CC(C)Sc1nnc(NC(=O)c2ccco2)s1 | inactive | – |
| COC(=O)Cc1ccc(NC(=S)NCc2ccc(OC)cc2)cc1 | inactive | – |
| COc1cc(/C=C/C(=O)OCC(=O)N(C)Cc2ccccc2)ccc1O | inactive | – |
| CCC(=O)Nc1ccc2c(c1)OC[C@@H](C)N(C(=O)NC(C)C)C[C@H](C)[C@H](OC)CN(C)C2=O | inactive | – |
| Cc1cccc(/C=C/c2onc(C)c2S(=O)(=O)N2CCC(C(=O)N3CCCCC3)CC2)c1 | inactive | – |
| CCCCn1c(N)c(N(CC)C(=O)c2cccs2)c(=O)[nH]c1=O | inactive | – |
| COc1ccc(NC(=O)CSc2nccn2C)cc1S(N)(=O)=O | inactive | – |
| CCN(CC)C(=O)C1CCN(S(=O)(=O)c2c(C)noc2/C=C/c2cccc(C)c2)CC1 | inactive | – |
| CCCNC(=O)C[C@H]1CC[C@@H]2[C@@H](COc3ccc(NC(=O)c4ccc5c(c4)OCO5)cc3C(=O)N2C)O1 | – | AC50: > 39 µM (inactive) |

| SMILES | activity change, negative = inhibition (at 19.5 µM (top of the series)) | also measured |
| --- | --- | --- |
| O=C(O)C1C(=O)NCC1c1ccccc1 (configuration not stated) | inactive | – |
| O=C(Nc1ccc2c(c1)OCCO2)c1cc2ccccc2o1 | inactive | – |
| Cn1c(SCc2nnc(-c3ccccc3)o2)nc2ccccc21 | inactive | – |
| C=CCN=c1scc(C)n1/N=C/c1ccc(O)c(O)c1 | inactive | – |
| CCCCn1c(CN2CCN(C(=O)c3ccco3)CC2)nc2c1c(=O)n(C)c(=O)n2C | inactive | – |
| CN(C)/C=C(\C#N)C(=O)Nc1ccc(O)cc1F | inactive | – |
| COC(=O)c1ccc(NC(=S)Nc2ccc(O)cc2)cc1 | inactive | – |
| Oc1ccc(Cc2ccc(Cl)cc2)c(O)c1 | inactive | – |
| COc1ccc(/C=C2\CCCCC2=O)cc1 | inactive | – |
| CCCN1CCN(C(=O)C2CCN(S(=O)(=O)c3c(C)noc3/C=C/c3ccc(C)cc3)CC2)CC1 | inactive | – |
| CNc1nc(C23CC4CC(CC(C4)C2)C3)cs1 | inactive | – |
| Cn1c(SCC(=O)c2cc3ccccc3o2)nnc1-c1ccccc1 | inactive | – |
| COc1ccc(C(=O)NC(CC(=O)O)c2cc([N+](=O)[O-])ccc2Cl)c(SC)c1 (configuration not stated) | inactive | – |
| CCN1/C(=C2\OC(=S)N(C)C2=O)C=Cc2ccccc21 | inactive | – |
| CCC(C)NC(=O)CSc1nc2cc(S(=O)(=O)N3CCOCC3)ccc2n1CC (configuration not stated) | inactive | – |
| CCOc1ccc(C(CC(=O)O)NC(=O)C23CC4CC(CC(C4)C2)C3)cc1OC (configuration not stated) | inactive | – |
| S=C(NCCc1ccccc1)Nc1ncccn1 | inactive | – |
| O=C(NC(=S)NNC(=O)c1ccccc1F)c1cccnc1 | inactive | – |
| CCOc1cc(/C=N/O)ccc1OCc1ccc(C)cc1 | inactive | – |
| COc1cc(Cc2ccc(N)c(OC)c2)ccc1N | inactive | – |
| COCC#Cc1ccc2c(c1)O[C@H](CN(C)C(=O)CC1CC1)[C@@H](C)CN([C@H](C)CO)S2(=O)=O | inactive | – |
| COc1ccc(NC(=O)Nc2nc(C)cc(C)n2)c(OC)c1 | inactive | – |
| Cn1c(=O)c2[nH]c(=S)n(Cc3ccccc3)c2n(C)c1=O | – | AC50: 18.2 µM |

Source: PubChem BioAssay AID720512 (Broad Institute, 2013)
